Experimental data as given in ChEMBL document CHEMBL1201862, “PubChem BioAssay data set” (2004).
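These data come from cells grown in 96-well plates and exposed to compound for 48 hours at five concentrations. GI50 marks 50% less growth.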 Calls of active or inactive are those of the source. No stated cut-off is given here; in the data, active = GI50 up to about 1.1 µM and inactive = higher.

Key:
Experiment in all cases: NCI tumour cell line growth inhibition, 48 h
786-0 = tested on: 786-0
A549 = tested on: A549
CAKI-1 = tested on: CAKI-1
CCRF-CEM = tested on: CCRF-CEM
HL-60 = tested on: HL-60
HOP-62 = tested on: HOP-62
IGROV-1 = tested on: IGROV-1
MDA-MB-231 = tested on: MDA-MB-231
MDA-MB-435 = tested on: MDA-MB-435
MDA-N = tested on: MDA-N
NCI-H460 = tested on: NCI-H460
NCI-H522 = tested on: NCI-H522
NCI/ADR-RES = tested on: NCI/ADR-RES
OVCAR-3 = tested on: OVCAR-3
OVCAR-4 = tested on: OVCAR-4
RXF 393 = tested on: RXF 393
SF-268 = tested on: SF-268
SK-OV-3 = tested on: SK-OV-3
SR = tested on: SR
UACC-62 = tested on: UACC-62

Structure (SMILES) | GI50 (786-0) | GI50 (A549) | GI50 (CAKI-1) | GI50 (CCRF-CEM) | GI50 (HL-60) | GI50 (HOP-62) | GI50 (IGROV-1) | GI50 (MDA-MB-231) | GI50 (MDA-MB-435) | GI50 (MDA-N) | GI50 (NCI-H460) | GI50 (NCI-H522) | GI50 (NCI/ADR-RES) | GI50 (OVCAR-3) | GI50 (OVCAR-4) | GI50 (RXF 393) | GI50 (SF-268) | GI50 (SK-OV-3) | GI50 (SR) | GI50 (UACC-62)
CCOC(=O)/C=C(/OCC)[C@@H]1C(C(=O)c2ccc(Cl)cc2)[C@H]1/C(=C\C(=O)OCC)OCC (stereo not given in full) | > 100 µM (inactive) | > 100 µM (inactive) | > 100 µM (inactive) | 57.4 µM (inactive) | 5.87 µM (inactive) | > 100 µM (inactive) | > 100 µM (inactive) | > 44.4 µM (inactive) | > 100 µM (inactive) | > 100 µM (inactive) | > 100 µM (inactive) | > 45.2 µM (inactive) | 29 µM (inactive) | > 100 µM (inactive) | > 100 µM (inactive) | 96.8 µM (inactive) | > 100 µM (inactive) | > 100 µM (inactive) | 8.73 µM (inactive) | > 30.7 µM (inactive)
OCC1OC(O[C@H]2CN3[C@H](O)[C@@H](O)[C@H](O)[C@H]3C2O)C(O)C(O)C1O (stereo not given in full) | > 100 µM (inactive) | > 100 µM (inactive) | > 100 µM (inactive) | > 100 µM (inactive) | > 100 µM (inactive) | > 100 µM (inactive) | > 100 µM (inactive) | > 100 µM (inactive) | > 100 µM (inactive) | > 100 µM (inactive) | > 100 µM (inactive) | > 100 µM (inactive) | > 100 µM (inactive) | > 100 µM (inactive) | > 100 µM (inactive) | > 100 µM (inactive) | > 100 µM (inactive) | > 100 µM (inactive) | > 100 µM (inactive) | > 100 µM (inactive)
CNC(=O)OCc1c(COC(=O)NC)c(-c2ccc(-c3ccccc3)cc2)n(C)c1C | 1.56 µM (inactive) | 1.9 µM (inactive) | 0.443 µM (active) | 0.502 µM (active) | 0.351 µM (active) | 2.79 µM (inactive) | 2.24 µM (inactive) | 2.69 µM (inactive) | 5.41 µM (inactive) | 4.34 µM (inactive) | 0.401 µM (active) | 1.58 µM (inactive) | 2.64 µM (inactive) | 2.54 µM (inactive) | 3.08 µM (inactive) | 0.512 µM (active) | 0.755 µM (active) | 2.88 µM (inactive) | 0.116 µM (active) | 1.64 µM (inactive)
C=C(Cl)C(Cl)(CBr)CCCC(C)C (stereo not given) | 9.66 µM (inactive) | 21.4 µM (inactive) | 5.81 µM (inactive) | > 57.5 µM (inactive) | 12.1 µM (inactive) | 13.7 µM (inactive) | > 100 µM (inactive) | 20.7 µM (inactive) | 37.5 µM (inactive) | 22 µM (inactive) | 15.7 µM (inactive) | > 100 µM (inactive) | 27 µM (inactive) | 6.89 µM (inactive) | 33 µM (inactive) | 7.69 µM (inactive) | 15.1 µM (inactive) | > 100 µM (inactive) | > 75.7 µM (inactive) | > 63.5 µM (inactive)
CC(C)(C)c1cc(OCc2nn3c(Cc4ccccc4)nnc3s2)c(Cl)cc1OCc1nn2c(Cc3ccccc3)nnc2s1 | 30 µM (inactive) | 29.7 µM (inactive) | 23.6 µM (inactive) | 6.67 µM (inactive) | 23.9 µM (inactive) | 94.2 µM (inactive) | 20.7 µM (inactive) | 33.3 µM (inactive) | 26.4 µM (inactive) | 36.5 µM (inactive) | 28.2 µM (inactive) | 23.5 µM (inactive) | 39.3 µM (inactive) | 15.6 µM (inactive) | 19.8 µM (inactive) | 17.1 µM (inactive) | 55.5 µM (inactive) | > 100 µM (inactive) | 39.9 µM (inactive) | 24.1 µM (inactive)
O=C1Nc2ccccc2/C1=C/c1c(Cl)[nH]c2ccc(O)cc12 | 3.27 µM (inactive) | 4.54 µM (inactive) | 3.74 µM (inactive) | 1.4 µM (inactive) | 0.836 µM (active) | 2.59 µM (inactive) | 1.69 µM (inactive) | 1.79 µM (inactive) | 0.214 µM (active) | 0.194 µM (active) | 3.61 µM (inactive) | 1.3 µM (inactive) | 0.944 µM (active) | 1.77 µM (inactive) | 3.94 µM (inactive) | 2.36 µM (inactive) | 3.77 µM (inactive) | 1.71 µM (inactive) | 0.177 µM (active) | 0.681 µM (active)
C[N+]1(C)CCOC(O)(c2ccccc2)C1 (stereo not given) | > 100 µM (inactive) | > 100 µM (inactive) | > 100 µM (inactive) | > 100 µM (inactive) | > 100 µM (inactive) | > 100 µM (inactive) | > 100 µM (inactive) | > 100 µM (inactive) | > 100 µM (inactive) | > 100 µM (inactive) | > 100 µM (inactive) | > 100 µM (inactive) | > 100 µM (inactive) | > 100 µM (inactive) | > 100 µM (inactive) | > 100 µM (inactive) | > 100 µM (inactive) | > 100 µM (inactive) | > 100 µM (inactive) | > 100 µM (inactive)
